Read-outs that look alike come from different tables or passages of the source.
Legend:
PTBP1 RRM12 = biological target: T1, PTBP1 RRM12 (Homo sapiens, UniProt P26599); assay: Competitive fluorescence polarization assay between RRM12 and RNA-2; format: binding
T1 construct: (P57-V265); MBP (from pMAL vector); His tag; made in house; host or cells: E. coli BL21 DE3 RIL
T1 sequence (P26599 57-265): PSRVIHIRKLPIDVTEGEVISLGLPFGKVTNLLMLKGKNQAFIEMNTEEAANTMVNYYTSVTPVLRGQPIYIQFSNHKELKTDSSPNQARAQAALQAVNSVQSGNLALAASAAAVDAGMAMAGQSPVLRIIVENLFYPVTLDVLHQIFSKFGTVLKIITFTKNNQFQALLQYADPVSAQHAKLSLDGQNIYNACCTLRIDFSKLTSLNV
Description: (§1) For the initial design we used the i, i + 4 strategy where two (S)-pentenyl alanines (S5) were introduced in positions with three other amino acids in between. We picked three different amino acid pairs to replace with the S5 amino acids based on their orientation as observed in the NMR structures (P-2, P-3 and P-4, Fig. 2B and C).[25] To prevent the staple from disturbing the interaction between the ligand and the protein we chose positions facing away from the binding site forming the pairs Ala145/Ala149, Gln148/Gln152, and Ala149/Ala153. The three peptides were synthesized on Rink amide resin and the linear peptides were treated with a Grubbs catalyst to connect the S5 residues. To avoid a mixture of E/Z-diastereomers we reduced the alkene in the linker of the staple using a solution phase hydrogenation protocol.[43] The linear equivalent P-1 was synthesized for comparison but had to be extended on the C-terminus with an arginine residue to improve its solubility. The C-terminus is away from the binding surface and this modification was therefore not expected to have an impact on the binding affinity. The peptides were tested in a competitive fluorescence polarization assay using the RRM12 construct and RNA-2 (Fig. 2C and S2 ^†). […] As the staple is expected to stabilize the α-helical conformation we used circular dichroism (CD) spectroscopy to evaluate the helicity of the peptides. […] It is possible that although P-4 was more helical than P-3, the replacement of Gln148 with the hydrophobic linker disturbed the interaction since the side chain amide potentially interacts with the RRM1 surface. […]
size exclusion chromatography (Superdex 75 16/60 or 26/60) with SEC buffer (50 mM Tris, 200 mM NaCl). Protein homogeneity was assessed by the size exclusion chromatogram and purity was checked by SDS-PAGE analysis to be >= 90%.
The gene encoding for SRSF1-RRM12 (1-195) was subcloned into pOPIN-His expression vector and expressed in E. coli BL21 (DE3). A pre-culture of transformed bacteria was made followed by expression in LB-Medium (100 µg/ml Ampicillin, 1 mM IPTG, 18 °C, 160 rpm overnight) after growing the culture at 37 °C, 160 rpm to an OD600 of 0.6. The harvested cells (5000 x g, 4 °C, 15 min) were resuspended in Buffer ASRSF1 (50 mM Na2HPO4 pH 8.0, 300 mM KCl, 50 mM L-Arg, 50 mM L-Gly, 1.5 mM MgCl2) supplemented with 1 mM PMSF followed by lysis through sonification. The protein was purified using a HisTrap HP 5 ml column (GE-Healthcare) using a gradient of Buffer BSRSF1 (50 mM Na2HPO4 pH 8.0, 300 mM KCl, 50 mM L-Arg, 50 mM L-Gly, 1.5 mM MgCl2, 500 mM Imidazole) followed by dialysis into wash buffer (50 mM Na2HPO4 pH 8.0, 300 mM KCl, 50 mM L-Arg, 50 mM L-Gly, 1.5 mM MgCl2, 40 mM Imidazole) and a second run of the affinity column. The protein containing fractions were afterwards dialyzed into wash buffer with tag-cleavage using His-tagged 3C protease. The cleaved construct was subsequently used for a third affinity column run collecting the unbound fraction which was dialyzed into storage buffer (20 mM Na2HPO4 pH 8.0, 150 mM KCl, 50 mM L-Arg, 50 mM L-Gly, 1.5 mM MgCl2, 0.2 mM EDTA, 1 mM TCEP).
Purification of hnRNP A2/B1
The MBP-tagged hnRNP A2/B1 construct (1-251) was expressed from a pOPIN-His-MBP vector in E. coli BL21 (DE3) RIPL cells. A pre-culture in TB (0.01% lactose, 2mM MgSO4, 100 µg/ml ampicillin, 50 µg/ml chloramphenicol) was used to inoculate the expression culture with a starting OD600 of 0.05 at 37 °C. Expression was autoinduced at 37 °C for 4 h followed by expression over night at 25 °C. Harvested cells (5000 x g, 15 min, 4 °C) were resuspended in Buffer AhnRNPA2/B1 (50 mM HEPES pH 8.0, 300 mM NACl, 20 mM Imidazole, 1 mM TCEP) supplemented with 1 mM PMSF) and lysed with a microfluidizer.
Immobilized metal affinity chromatography was performed using a HisTrap FF crude 5 ml column. The loaded protein was washed with wash buffer (50 mM HEPES pH 8.0, 300 mM NaCl, 30 mM Imidazole, […]

[1] = Helicity by circular dichroism spectroscopy; format: physicochemical; conditions: 50 µM peptide, 20 mM sodium phosphate pH 8.0, 10 mM NaF, 20 °C, triplicates, JASCO multivariate secondary structure analysis
Description: as §1
(§2) performed in FP bufferPTBP1. […]
(§3) serially diluted in the same buffer. […]
(§4) a final concentration of 10 nM probe. […]
(§5) the settings mentioned previously.
(§6) Fluorescence polarization assay with SRSF1
(§7) Fluorescence polarization was
(§8) Fluorescence polarization assay with hnRNPA2/B1
(§9) For the competitive assay 10 nM
(§10) Microscale thermophoresis […]
(§11) afterwards serially diluted into FP buffer.
(§12) The data was evaluated at […]
(§13) experiments were performed in duplicates.
(§14) Circular Dichroism Spectroscopy […]

hnRNP A2/B1 = biological target: T2, hnRNP A2/B1 (Homo sapiens, UniProt P22626); assay: Competitive fluorescence polarization assay, hnRNP A2/B1 and RNA-AB; format: binding; conditions: Fig. 3C; competitive FP, 10 nM hnRNPA2/B1, 1 nM Cy5-labeled RNA-AB, 25 mM HEPES pH 8.0; read-out: P-6 Ki, construct hnRNP A2/B1
T2 construct: (1-251); made in house; host or cells: E. coli BL21 (DE3) RIPL
T2 sequence (P22626 1-251, species assumed): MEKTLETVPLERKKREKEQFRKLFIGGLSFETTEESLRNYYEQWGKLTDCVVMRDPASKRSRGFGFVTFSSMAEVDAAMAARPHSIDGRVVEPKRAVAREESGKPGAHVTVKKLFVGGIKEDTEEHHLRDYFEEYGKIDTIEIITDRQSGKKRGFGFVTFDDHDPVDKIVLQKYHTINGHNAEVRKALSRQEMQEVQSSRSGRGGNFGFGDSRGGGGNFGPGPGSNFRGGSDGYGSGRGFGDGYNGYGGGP
Description: The RRM domain is the most commonly occurring RNA-binding domain in the proteome making it challenging to find selective inhibitors.[23,46] Although various ligands have been described, their selectivity is rarely investigated, with an exception for the Musashi-1 inhibitor Ro 08-2750.[47–58] To investigate whether P-6 has an effect on the RNA-binding of other dual RRM containing proteins, we evaluated its inhibitory potency against another hnRNP protein (hnRNP A2/B1) as well as a splicing factor from the SR-protein class (SRSF1).[1] We evaluated P-6 in competitive fluorescence polarization assays using previously described RNAs recognized by these proteins.[59] […]
as §2, §3, §4, §5, §6, §7, §8, §9, §10, §11, §12, §13, §14
secondary structure analysis with a reference data set. For experiments with PTBP1 constructs the […]

[2] = Fig. 2C, 5 nM FAM-RNA-2, protein at 50-70 % probe binding, FP buffer pH 8.0, 20 °C, 30 min, n.b. given for inactive peptides, read-out: Ki, competitive FP assay between RRM12 and RNA-2

Structure (SMILES) | Ki (PTBP1 RRM12; [2]) [µM] | Helicity by CD spectroscopy [1] [%] | Ki (PTBP1 RRM12; Fig. 3C experiment, competitive FP with RNA-2, read-out: P-6 Ki, construct RRM12) [µM] | Ki (hnRNP A2/B1) [µM]
CC(=O)N[C@@H](CC(N)=O)C(=O)N[C@@H](CCC(N)=O)C(=O)N[C@@]1(C)CCCCCCCC[C@@](C)(C(=O)N[C@@H](C)C(=O)N[C@@H](CC(C)C)C(=O)N[C@@H](CCC(N)=O)C(=O)N[C@@H](C)C(=O)N[C@H](C(=O)N[C@@H](CC(N)=O)C(N)=O)C(C)C)NC(=O)[C@H](CCC(N)=O)NC(=O)[C@H](C)NC(=O)[C@H](CCCNC(=N)N)NC1=O [Peptide P-2] | 11.6 | 92.3 | – | –
CC(=O)N[C@@H](CC(N)=O)C(=O)N[C@@H](CCC(N)=O)C(=O)N[C@@]1(C)CCCC=CCCCC2(CCCC=CCCC[C@](C)(C(=O)N[C@H](C(=O)N[C@@H](CC(N)=O)C(N)=O)C(C)C)NC(=O)[C@H](CCC(N)=O)NC(=O)[C@H](CC(C)C)NC(=O)[C@H](C)NC2=O)NC(=O)[C@H](CCC(N)=O)NC(=O)[C@H](C)NC(=O)[C@H](CCCNC(=N)N)NC1=O (some centres unmarked) [Peptide P-6] | 9.3 | – | 8 ± 7.1 | > 1000

— PMC10411625, “Rationally designed stapled peptides allosterically inhibit PTBP1–RNA-binding” (Chemical Science, 2023)
